# Data published in patent US20080032978A1, “SOLUBLE EPOXIDE HYDROLASE INHIBITORS” (Arete Therapeutics, Inc., priority 2006, published 2008).
# Key:
# [1] = system: soluble epoxide hydrolase (sEH); test: Fluorescent assay for mouse and human soluble epoxide hydrolase (CMNPC substrate); assay type: biochemical
# Excerpt: Fluorescent Assay for Mouse and Human Soluble Epoxide Hydrolase Recombinant mouse sEH (MsEH) and human sEH (HsEH) were produced in a baculovirus expression system as previously reported. Grant et al., J. Biol. Chem., 268:17628-17633 (1993); Beetham et al., Arch. Biochem. Biophys., 305:197-201 (1993). The expressed proteins were purified from cell lysate by affinity chromatography. Wixtrom et al., Anal. […] Protein concentration was quantified using the Pierce BCA assay using bovine serum albumin as the calibrating standard. […] Solutions: Bis/Tris HCl 25 mM 7.0 containing 0.1 mg/mL of BSA (buffer […] at 0.25 mM in DMSO. Mother solution of enzyme in buffer A (Mouse sEH at 6 μg/mL and Human sEH at 5 μg/mL). Inhibitor dissolved in DMSO at the appropriate concentration. Protocol: In a black 96 well plate, fill all the wells with 150 μL of buffer A. Add 2 μL of DMSO in well A2 and A3, and then add 2 μL of inhibitor solution in A1 and A4 through A12. Add 150 μL of buffer A in a row A, then mix several time and transfer 150 μL to row B. Repeat this operation up to row H. The 150 μL removed from row H go to the trash. Add 20 μL of buffer A in column 1 and 2, then add 20 μL of enzyme solution to column 3 to 12. Incubate the plate for 5 minutes in the plate reader at 30° C. During incubation prepare the working solution of substrate by mixing 3.68 mL of buffer A (4×0.920 mL) with 266 μL (2×133 μL) of substrate solution). At t=0, add 30 μL of working substrate solution with multi-channel pipette labeled “Briggs 303” and start the reading ([S]final: 5 μM). Read with ex: 330 nm (20 nm) and em: 465 nm (20 nm) every 30 second for 10 minutes. The velocities are used to analyze and calculate the IC50s.
melting point [°C],% I ([1]; Conc of I 500 nM) [%],% I ([1]; Conc of I 5000 nM) [%],SMILES
238 to 241,64,,"O=C(Nc1ccc(Cl)cc1)Nc1ccc(C(=O)N2CCC(C(=O)O)CC2)cc1 [Compound 9, 1-{4-[3-(4-Chloro-phenyl)-ureido]-benzoyl}-piperidine-4-carboxylic acid]"
89 to 94,81,,"CN(C)CCN(C)C(=O)c1cccc(NC(=O)NC23CC4CC(CC(C4)C2)C3)c1 [Compound 38, 3-(3-Adamantan-1-yl-ureido)-N-(2-dimethylamino-ethyl)-N-methyl-benzamide]"
193 to 197,94,,"O=C(Nc1ccc(C(F)(F)F)cc1)Nc1cccc(C(=O)N2CCC(C(=O)O)CC2)c1 [Compound 29, 1-{3-[3-(4-Trifluoromethyl-phenyl)-ureido]-benzoyl}-piperidine-4-carboxylic acid]"
272 to 275,,99,"O=C(Nc1ccc(C(=O)N2CCC(C(=O)O)CC2)cc1)NC12CC3CC(CC(C3)C1)C2 [Compound 12, 1-[4-(3-Adamantan-1-yl-ureido)-benzoyl]-piperidine-4-carboxylic acid]"
